Measured values published in the supplement of paper PMC10307832.

Legend:
Test in all cases: relative viability (nuclei count vs DMSO), 5 days (fraction); higher = more cells survive
Ruxolitinib + Bortezomib = compound: N#CC[C@H](C1CCCC1)n1cc(-c2ncnc3[nH]ccc23)cn1 [Ruxolitinib] + CC(C)C[C@H](NC(=O)[C@H](Cc1ccccc1)NC(=O)c1cnccn1)B(O)O [Bortezomib] (partner 0.002 µM)
Outline: (§1)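 Lung cancer cell lines were pin-tool dosed in 1536-well plates on the day after seeding, with either a lone drug or a fixed anchor-drug dose plus five library-drug doses (not always all listed) in √10 steps. Nuclei were counted on 4× images after 5 days. Relative viability is the ratio of treated-well to vehicle-well nuclei counts, with each value a median of duplicate plates.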

VE-821 + Linsitinib = compound: CS(=O)(=O)c1ccc(-c2cnc(N)c(C(=O)Nc3ccccc3)n2)cc1 [VE-821] + C[C@]1(O)C[C@@H](c2nc(-c3ccc4ccc(-c5ccccc5)nc4c3)c3c(N)nccn32)C1 [Linsitinib] (partner 1 µM)
Outline: as §1

VE-821 + Crizotinib = compound: CS(=O)(=O)c1ccc(-c2cnc(N)c(C(=O)Nc3ccccc3)n2)cc1 [VE-821] + C[C@@H](Oc1cc(-c2cnn(C3CCNCC3)c2)cnc1N)c1c(Cl)ccc(F)c1Cl [Crizotinib] (partner 1 µM)
Outline: as §1

VE-821 + Decitabine = compound: CS(=O)(=O)c1ccc(-c2cnc(N)c(C(=O)Nc3ccccc3)n2)cc1 [VE-821] + Nc1ncn([C@H]2C[C@H](O)[C@@H](CO)O2)c(=O)n1 [Decitabine] (partner 2 µM)
Outline: as §1

| Cell Line | relative viability (Ruxolitinib + Bortezomib; first compound 0.08 µM) | relative viability (Ruxolitinib + Bortezomib; first compound 0.253 µM) | relative viability (Ruxolitinib + Bortezomib; first compound 0.8 µM) | relative viability (Ruxolitinib + Bortezomib; first compound 2.53 µM) | relative viability (Ruxolitinib + Bortezomib; first compound 8 µM) | relative viability (VE-821 + Linsitinib; first compound 0.08 µM) | relative viability (VE-821 + Linsitinib; first compound 0.253 µM) | relative viability (VE-821 + Linsitinib; first compound 0.8 µM) | relative viability (VE-821 + Linsitinib; first compound 2.53 µM) | relative viability (VE-821 + Linsitinib; first compound 8 µM) | relative viability (VE-821 + Crizotinib; first compound 0.08 µM) | relative viability (VE-821 + Crizotinib; first compound 0.253 µM) | relative viability (VE-821 + Crizotinib; first compound 0.8 µM) | relative viability (VE-821 + Crizotinib; first compound 2.53 µM) | relative viability (VE-821 + Crizotinib; first compound 8 µM) | relative viability (VE-821 + Decitabine; first compound 0.08 µM) | relative viability (VE-821 + Decitabine; first compound 0.253 µM) | relative viability (VE-821 + Decitabine; first compound 0.8 µM) | relative viability (VE-821 + Decitabine; first compound 2.53 µM) | relative viability (VE-821 + Decitabine; first compound 8 µM) |
| --- | --- | --- | --- | --- | --- | --- | --- | --- | --- | --- | --- | --- | --- | --- | --- | --- | --- | --- | --- | --- |
| HCC-78 | 0.379 | 0.365 | 0.441 | 0.354 | 0.391 | 0.626 | 0.575 | 0.404 | 0.477 | 0.328 | 0.344 | 0.368 | 0.338 | 0.352 | 0.336 | 0.619 | 0.597 | 0.719 | 0.785 | 0.699 |
| HCC-366 | 1.03 | 0.987 | 1.16 | 1.01 | 0.845 | 0.907 | 0.49 | 0.329 | 0.477 | 0.0616 | 0.792 | 0.428 | 0.403 | 0.337 | 0.045 | 0.398 | 0.381 | 0.323 | 0.226 | 0.121 |
| HCC-827 | 1.05 | 0.993 | 1.01 | 0.881 | 0.798 | 0.932 | 1.01 | 0.909 | 0.934 | 0.976 | 0.989 | 1.01 | 0.94 | 1.02 | 0.898 | 0.347 | 0.344 | 0.357 | 0.352 | 0.357 |
| HOP-62 |  | 0.719 | 1.15 | 0.856 | 0.763 | 0.838 | 0.911 | 0.933 | 1.23 | 0.873 | 0.955 | 0.885 | 0.754 | 1.03 | 0.902 | 0.185 | 0.261 | 0.265 | 0.214 | 0.25 |
| LC-2-ad | 1.04 | 0.861 | 1.22 | 0.98 | 0.609 | 0.88 | 0.764 | 0.821 | 0.925 | 0.661 | 0.516 | 0.424 | 0.526 | 0.518 | 0.499 | 0.747 | 0.769 | 0.955 | 0.865 | 0.916 |
| LCLC-97TM1 | 0.407 | 0.69 | 0.635 | 0.906 | 0.526 | 0.186 | 0.2 | 0.19 | 0.183 | 0.191 | 0.537 | 0.381 | 0.413 | 0.632 | 0.174 | 0.266 | 0.278 | 0.239 | 0.251 | 0.178 |
| LCLC-103H | 0.922 | 1.17 | 1.04 | 1.15 | 0.951 | 1.23 | 1.1 | 0.999 | 1.34 | 1.1 | 1.08 | 1 | 0.998 | 1.08 | 1.1 | 0.749 | 0.702 | 0.778 | 0.77 | 0.729 |
| LOU-NH91 | 0.52 | 0.463 | 0.492 | 0.47 | 0.534 | 0.94 | 0.949 | 0.989 | 1.04 | 0.898 | 0.74 | 0.772 | 0.757 | 0.754 | 0.752 | 0.833 | 0.813 | 0.812 | 0.836 | 0.805 |
| LU99A | 1.27 | 1.05 | 1.21 | 1.15 | 0.842 | 0.496 | 0.535 | 0.545 | 0.53 | 0.278 | 0.628 | 0.564 | 0.532 | 0.476 | 0.325 | 1.01 | 0.763 | 0.881 | 0.801 | 0.395 |
| LXF-289 | 1 | 0.963 | 0.991 | 0.933 | 0.897 | 0.992 | 0.945 | 1.06 | 1.1 | 1.07 | 0.919 | 0.812 | 0.9 | 0.933 | 0.912 | 0.426 | 0.413 | 0.467 | 0.437 | 0.556 |
| NCI-H23 | 1.12 | 1.02 | 1.34 | 0.89 | 0.731 | 0.56 | 0.639 | 0.485 | 0.706 | 0.37 | 0.788 | 0.495 | 0.501 | 0.508 | 0.272 | 0.304 | 0.35 | 0.289 | 0.36 | 0.245 |
| NCI-H322M | 1.18 | 1.31 | 1.26 | 1.52 | 1.64 | 0.933 |  | 1 | 0.93 | 0.771 | 1.03 |  | 0.858 | 0.881 | 0.502 | 0.693 | 0.639 | 0.752 | 0.793 | 0.553 |
| NCI-H441 | 0.545 | 0.448 | 0.557 | 0.456 | 0.397 | 0.762 | 0.666 | 0.651 | 0.821 | 0.42 | 1.21 | 0.791 | 0.866 | 0.927 | 0.723 | 0.305 | 0.271 | 0.226 | 0.258 | 0.271 |
| NCI-H460 | 1.06 | 1.11 | 1.29 | 1.01 | 0.86 | 1.06 | 0.657 | 0.693 | 0.239 | 0.0295 | 1.5 | 0.818 | 0.588 | 0.359 | 0.186 | 0.554 | 0.543 | 0.366 | 0.276 | 0.0965 |
| NCI-H520 |  | 0.323 | 0.859 | 0.323 | 0.364 | 1.09 | 0.931 |  | 1.03 | 0.755 | 0.967 | 0.826 |  | 0.867 | 0.503 | 0.516 | 0.526 | 0.583 | 0.545 | 0.379 |
| NCI-H596 | 0.964 | 1.17 | 1.21 |  | 0.994 | 1.1 | 1.18 | 1.03 | 1.15 | 0.94 | 0.977 | 1.03 | 0.904 | 1.12 | 0.934 | 1.08 | 1.08 | 1.04 | 1.12 | 1.09 |
| NCI-H647 | 0.867 | 0.942 | 1.23 | 0.783 | 0.885 | 1.44 | 1.28 | 0.829 | 0.751 | 0.493 | 1.11 | 1.05 | 1.02 | 0.935 | 0.42 | 0.401 | 0.5 | 0.385 | 0.385 | 0.235 |
| NCI-H650 |  | 0.777 | 0.812 | 0.888 | 0.478 | 0.959 | 0.843 | 0.863 | 0.949 | 0.714 | 0.969 | 0.969 | 0.675 | 0.889 | 0.642 | 0.311 | 0.342 | 0.383 | 0.436 | 0.366 |
| NCI-H661 | 0.66 | 0.858 | 0.998 | 0.792 | 0.908 | 0.539 | 0.568 | 0.481 | 0.493 | 0.4 | 1.08 | 0.942 | 1.05 | 0.997 | 1.06 | 0.61 | 0.568 | 0.648 | 0.628 | 0.602 |
| NCI-H727 | 0.997 | 0.845 | 1.14 | 0.941 | 1.07 | 0.31 | 0.337 | 0.251 | 0.335 | 0.22 | 0.866 | 0.804 | 0.898 | 0.739 | 0.394 | 0.865 | 0.799 | 0.952 | 0.916 | 0.751 |
| NCI-H838 | 0.875 | 0.652 | 0.887 | 0.398 | 0.342 | 1.13 | 0.992 | 0.913 | 1.11 | 0.913 | 0.96 | 0.721 | 0.688 | 0.875 | 0.757 | 0.461 | 0.488 | 0.564 | 0.559 | 0.456 |
| NCI-H1355 | 1.25 | 1.13 | 1.14 | 1.11 | 1.22 | 0.803 | 0.789 | 0.654 | 0.767 | 0.56 | 1.22 | 1.11 | 0.993 | 1.04 | 0.768 | 0.362 | 0.347 | 0.333 | 0.371 | 0.36 |
| NCI-H1437 | 0.634 | 0.519 | 0.586 | 0.413 | 0.464 | 1.2 | 1.08 | 0.927 | 0.997 | 0.558 | 1.1 | 0.906 | 0.864 | 1.01 | 0.823 | 0.579 | 0.488 | 0.593 | 0.598 | 0.497 |
| NCI-H1651 | 0.944 | 0.923 | 0.937 | 0.794 | 0.969 | 1.01 | 0.999 | 0.847 | 0.986 | 0.737 | 0.844 | 0.914 | 0.853 | 0.837 | 0.872 | 0.486 | 0.697 | 0.614 | 0.673 | 0.543 |
| NCI-H1666 | 0.685 | 0.833 | 0.861 | 0.781 | 0.96 | 0.765 | 0.884 | 0.777 | 0.857 | 0.553 | 1.03 | 1.06 | 1.1 | 0.895 | 0.635 | 0.698 | 0.702 | 0.786 | 0.753 | 0.688 |
| NCI-H1734 | 0.928 | 0.924 | 0.983 | 0.74 | 0.835 | 0.97 | 0.917 | 0.737 | 0.969 | 0.617 | 0.827 | 0.649 | 0.585 | 0.726 | 0.541 | 0.585 | 0.473 | 0.515 | 0.522 | 0.448 |
| NCI-H1755 | 0.984 | 1.04 | 1.03 | 0.853 | 0.658 | 1.05 | 0.978 | 0.795 | 0.958 | 0.898 | 0.969 | 0.841 | 0.69 | 0.835 | 0.722 | 0.734 | 0.754 | 0.866 | 0.867 | 0.831 |
